{"source": "paper PMC12903969", "about": "“Discovery of a Novel and Potent Kir4.1 Inhibitor as a Safe and Rapid‐Onset Antidepressant Agent in Mice” (Advanced Science, 2025)", "key": {"[1]": {"target": "T1, Kir4.1 T155A (Homo sapiens, UniProt P78508, T155A)", "T1 construct": "expressed in transfected cells; host or cells: CHO-K1", "T1 sequence (P78508 whole entry T155A)": "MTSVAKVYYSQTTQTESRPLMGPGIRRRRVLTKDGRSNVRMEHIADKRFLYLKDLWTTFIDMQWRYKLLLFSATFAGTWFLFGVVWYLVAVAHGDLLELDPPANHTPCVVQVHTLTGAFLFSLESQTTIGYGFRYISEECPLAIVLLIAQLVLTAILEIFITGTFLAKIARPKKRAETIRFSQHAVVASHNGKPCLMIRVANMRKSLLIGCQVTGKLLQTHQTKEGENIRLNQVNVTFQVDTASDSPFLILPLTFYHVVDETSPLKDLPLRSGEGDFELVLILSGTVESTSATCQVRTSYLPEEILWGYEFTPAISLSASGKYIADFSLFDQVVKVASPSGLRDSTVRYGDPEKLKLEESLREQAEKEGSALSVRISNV", "test": "Whole-cell patch clamp, Kir4.1 point mutant T155A", "assay_type": "cell-based", "details": "JX3212 3 µM (Fig 2D)", "protocol": "(§1) Plasmids encoding WT human potassium channels Kir1.1, Kir2.1, Kir2.2, Kir4.1, and Kir4.2 were obtained from the Beijing Genomics Institute. All point mutations were constructed using the QuickChange II Site‐Directed Mutagenesis Kit (Stratagene) and subsequently verified by sequencing.\nCHO‐K1 cells were maintained in DMEM/F12 growth medium containing 10% fetal bovine serum. Plasmids encoding the target genes (3600 ng) and enhanced green fluorescent protein (400 ng) were cotransfected into cells using Lipofectamine 2000 (Invitrogen) in accordance with the manufacturer's instructions. Cells were seeded onto poly‐d‐lysine (PDL)‐coated glass coverslips 1 h prior to electrophysiological recordings. […]\nWhole‐cell patch‐clamp recordings were obtained either in transiently transfected CHO‐K1 cells or in primary cultured astrocytes at room temperature using standard patch‐clamp techniques with an Axopatch‐700B amplifier (Axon Instruments). […] Macroscopic currents generated by expressed potassium channels were recorded under the voltage‐clamp conditions with an internal pipette solution composed of (in mM): 140 KCl, 5 NaCl, 1 CaCl2, 1 MgCl2, 10 HEPES, and 10 EGTA, pH 7.2 adjusted with KOH. […] Astrocytic resting membrane potentials were recorded under current‐clamp conditions (I = 0 pA) using standard internal and external solutions, determined immediately after achieving whole‐cell mode."}, "[2]": {"target": "T2, Kir2.1 (Homo sapiens, UniProt P63252)", "T2 construct": "host or cells: CHO-K1", "T2 sequence (P63252 1-427)": "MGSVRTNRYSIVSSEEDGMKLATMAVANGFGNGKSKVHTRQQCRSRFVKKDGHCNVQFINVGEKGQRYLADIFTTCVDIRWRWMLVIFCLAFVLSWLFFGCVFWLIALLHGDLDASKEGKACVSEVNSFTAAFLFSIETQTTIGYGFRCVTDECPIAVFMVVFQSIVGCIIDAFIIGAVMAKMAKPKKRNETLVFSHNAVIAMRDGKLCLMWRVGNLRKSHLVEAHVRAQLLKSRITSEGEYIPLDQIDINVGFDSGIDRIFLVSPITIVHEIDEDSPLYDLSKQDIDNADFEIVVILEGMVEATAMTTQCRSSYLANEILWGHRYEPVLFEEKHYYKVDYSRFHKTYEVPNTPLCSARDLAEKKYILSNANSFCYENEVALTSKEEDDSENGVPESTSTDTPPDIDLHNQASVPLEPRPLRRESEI", "test": "Whole-cell patch clamp, Kir2.1", "assay_type": "cell-based", "protocol": "as §1\nCHO‐K1 cells were maintained in DMEM/F12 growth medium containing 10% fetal bovine serum. Plasmids encoding the target genes (3600 ng) and enhanced green fluorescent protein (400 ng) were cotransfected into cells using Lipofectamine 2000 (Invitrogen) in accordance with the manufacturer's instructions. Cells were seeded onto poly‐d‐lysine (PDL)‐coated glass coverslips 1 h prior to electrophysiological recordings. All cells were cultured under standard conditions of 5% CO2 at 37 °C.\nWhole‐cell patch‐clamp recordings were obtained either in transiently transfected CHO‐K1 cells or in primary cultured astrocytes at room temperature using standard patch‐clamp techniques with an Axopatch‐700B amplifier (Axon Instruments). The signals were filtered at 2 kHz and sampled at 20 kHz using the Digidata 1440A interface (Axon Instruments). The resistance of borosilicate glass pipettes was typically 2–4 MΩ when filled with the internal solution. Drug application was facilitated using a BPS perfusion system (ALA Scientific Instruments). Macroscopic currents generated by expressed potassium channels were recorded under the voltage‐clamp conditions with an internal pipette solution composed of (in mM): 140 KCl, 5 NaCl, 1 CaCl2, 1 MgCl2, 10 HEPES, and 10 EGTA, pH 7.2 adjusted with KOH. The external solution contained (in mM): 140 NaCl, 5 KCl, 2 CaCl2, 1 MgCl2, 10 glucose, and 10 HEPES, pH 7.4 adjusted with NaOH. Currents were elicited with a hyperpolarized voltage at −120 mV from the holding potential of −80 mV, followed by a ramp voltage depolarizing to +50 mV. Astrocytic resting membrane potentials were recorded under current‐clamp conditions (I = 0 pA) using standard internal and external solutions, determined immediately after achieving whole‐cell mode."}, "[3]": {"target": "T3, 5-HTT (serotonin transporter, SERT) (Homo sapiens, UniProt P31645)", "T3 construct": "expressed in transfected cells", "T3 sequence (P31645 whole entry)": "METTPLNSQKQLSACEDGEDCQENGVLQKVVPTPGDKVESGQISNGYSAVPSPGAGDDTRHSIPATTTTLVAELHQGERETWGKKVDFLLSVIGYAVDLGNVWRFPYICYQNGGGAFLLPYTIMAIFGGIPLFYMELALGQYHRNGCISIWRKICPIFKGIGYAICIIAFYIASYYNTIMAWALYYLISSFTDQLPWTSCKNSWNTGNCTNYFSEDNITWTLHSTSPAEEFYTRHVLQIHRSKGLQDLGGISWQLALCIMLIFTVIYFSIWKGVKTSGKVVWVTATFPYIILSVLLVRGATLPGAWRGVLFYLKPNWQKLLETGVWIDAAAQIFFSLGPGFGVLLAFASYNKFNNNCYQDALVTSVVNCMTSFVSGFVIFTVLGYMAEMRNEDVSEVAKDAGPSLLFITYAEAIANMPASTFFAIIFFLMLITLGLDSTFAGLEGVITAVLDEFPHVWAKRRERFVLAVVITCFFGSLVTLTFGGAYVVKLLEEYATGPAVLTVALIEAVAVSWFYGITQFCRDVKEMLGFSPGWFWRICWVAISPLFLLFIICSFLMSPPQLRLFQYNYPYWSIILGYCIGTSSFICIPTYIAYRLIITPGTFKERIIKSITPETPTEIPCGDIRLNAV", "test": "5-HTT functional assay (fluorescent neurotransmitter transporter uptake)", "assay_type": "cell-based", "design": "SERT inhibition, replicates: unit not given here", "protocol": "The 5‐HTT/DAT functional assays were commissioned by Elsevier Science and Technology Co., Ltd. (Beijing). A fluorescence‐based neurotransmitter assay was conducted using a Neurotransmitter Transporter Uptake Assay Kit (Molecular Devices, R8174), according to the manufacturer's protocol. Flp‐in T‐rex 293 cells transiently expressing the human norepinephrine transporter and HEK293 cells stably expressing the human dopamine or serotonin transporters were seeded in PDL‐coated 384‐well plates and incubated overnight. Subsequently, the medium was removed, and the cells were treated with 16 µL of compounds diluted in assay buffer for 0.5 h at 37 °C. Centanafadine and 0.1% DMSO served as positive and negative controls, respectively. Then, 16 µL of dye mix prepared in 1× Hanks’ Balanced Salt Solution was added to each well and incubated at 37 °C for 1 h. Finally, the data point was acquired via a fluorescence plate reader with excitation at 450 nm and emission at 528 nm."}, "[4]": {"test": "Brain penetration (plasma and brain concentration, LC-MS/MS)", "assay_type": "in vivo, mice", "details": "for Kp at 1 h / concentration at 1 h: male, C57BL/6J, mouse; for Kp at 1 h: brain and plasma, read-out: Brain/Plasma concentration ratio; for concentration at 1 h: 1 h post-dosing", "protocol": "Male C57BL/6J mice were used for both blood–brain penetration and plasma/tissue distribution studies, with mice assigned to three groups: 10 mg kg^−1 JX3212 (n = 3), 20 mg kg^−1 JX3212 (n = 3) for blood–brain penetration, and 10 mg kg^−1 JX3212 for plasma/tissue distribution (all administered via intraperitoneal injection), where mice in the blood–brain penetration groups were fasted for 12 h prior to drug administration and 2 h post‐administration; 1 h after drug administration, 0.2 mL of blood was collected from the retro‐orbital/orbital venous plexus into 1.5 mL heparinized tubes, centrifuged at 11 000 rpm for 5 min to obtain plasma (stored at −80 °C for blood–brain penetration groups), while whole brains were excised for blood–brain penetration groups and whole brains plus kidneys (rinsed with physiological saline, blotted dry on filter paper, and accurately weighed) for the plasma/tissue distribution group; plasma samples (20 µL) were mixed with 20 µL internal standard solution and 300 µL acetonitrile for protein precipitation, vortexed for 15 min, centrifuged at 3700 rpm for 15 min at 4 °C, and the supernatant was collected, whereas brain and kidney samples were homogenized in acetonitrile at 10× tissue weight (8000 rpm, 3 × 30 s), sonicated for 5 min, and processed identically to plasma samples; the concentrations of JX3212 in plasma and tissues were quantified by liquid chromatography–tandem mass spectrometry (LC−MS/MS), with lower limits of quantification set to 50 ng mL^−1 for plasma and 50 ng g^−1 for brain tissue."}, "[5]": {"details": "mice, 10 mg/kg i.p., 1 h, 10 mg/kg"}, "[6]": {"details": "mice, 20 mg/kg i.p., 1 h, 20 mg/kg"}}, "note": "“And” between values parts separate entries of the source, which are not always exact repeats. Identical values can stand only once. Like-named read-outs stand apart in the source and are kept apart here."}
{"smiles": "c1ccc2c(c1)oc1ccc(Nc3ccnc(NCCCN4CCOCC4)n3)cc12", "note": "[JX3212, N^4-(dibenzo[b,d]furan-2-yl)-N^2-(3-morpholinopropyl)pyrimidine-2,4-diamine]", "values": [{"measurement": "Mutation: T155A inhibition, single recordings", "setting": "[1]", "result": "94.2403 and 81.3915 and 95.4304"}, {"measurement": "inhibition at 3 µM", "setting": "[1]; read-out: Mutation: T155A inhibition, single recordings", "result": 94.3, "unit": "%"}, {"measurement": "inhibition at 3 µM", "setting": "[2]; 3 µM, mean ± SEM, read-out: inhibition of Kir2.1", "result": "49.9 ± 4.35", "unit": "%"}, {"measurement": "Kir isoforms: Kir2.1 inhibition, single recordings", "setting": "[2]; JX3212 3 µM (Fig 2A)", "result": "46.776 and 54.8667"}, {"measurement": "inhibition at 3 µM", "setting": "[2]; JX3212 3 µM (Fig 2A), read-out: Kir isoforms: Kir2.1 inhibition, single recordings", "result": 48.1, "unit": "%"}, {"measurement": "IC50", "setting": "[3]", "result": 6.45, "unit": "µM"}, {"measurement": "SERT inhibition, replicates", "setting": "[3]; concentration 3", "result": "13.3 and 7.67"}, {"measurement": "SERT inhibition, replicates", "setting": "[3]; concentration 10", "result": "17.62 and 13.2"}, {"measurement": "SERT inhibition, replicates", "setting": "[3]; concentration 30", "result": "16.11 and 14.3"}, {"measurement": "SERT inhibition, replicates", "setting": "[3]; concentration 100", "result": "16.51 and 15.81"}, {"measurement": "SERT inhibition, replicates", "setting": "[3]; concentration 300", "result": "18.52 and 16.01"}, {"measurement": "SERT inhibition, replicates", "setting": "[3]; concentration 1000", "result": "49.66 and 31.98"}, {"measurement": "SERT inhibition, replicates", "setting": "[3]; concentration 3000", "result": "51.87 and 29.87"}, {"measurement": "SERT inhibition, replicates", "setting": "[3]; concentration 10000", "result": "69.95 and 46.05"}, {"measurement": "SERT inhibition, replicates", "setting": "[3]; concentration 30000", "result": "87.23 and 70.86"}, {"measurement": "SERT inhibition, replicates", "setting": "[3]; concentration 100000 (unit not given)", "result": "112.04 and 105.72"}, {"measurement": "Kp at 1 h", "setting": "[4]; ip, 10 mg/kg, mice, 10 mg/kg i.p., 1 h", "result": "> 10"}, {"measurement": "Kp at 1 h", "setting": "[4]; ip, 20 mg/kg, mice, 20 mg/kg i.p., 1 h", "result": "12.9 ± 1"}, {"measurement": "concentration at 1 h", "setting": "[4]; brain, intraperitoneal, 10 mg/kg, converted from 2533.3 ng/mL, read-out: brain concentration expressed as molar", "result": "~6.3", "unit": "µM"}, {"measurement": "concentration at 1 h", "setting": "[4]; brain, ip, 10 mg/kg, mice, 10 mg/kg i.p., read-out: Brain Calculated Concentration", "result": "2530 ± 745", "unit": "ng/mL"}, {"measurement": "concentration at 1 h", "setting": "[4]; brain, ip, 20 mg/kg, mice, 20 mg/kg i.p., read-out: Brain Calculated Concentration", "result": "6690 ± 816", "unit": "ng/mL"}, {"measurement": "concentration at 1 h", "setting": "[4]; plasma, ip, 10 mg/kg, mice, 10 mg/kg i.p., mean ± SD, read-out: Plasma Calculated Concentration", "result": "234 ± 14.4", "unit": "ng/mL"}, {"measurement": "concentration at 1 h", "setting": "[4]; plasma, ip, 20 mg/kg, mice, 20 mg/kg i.p., read-out: Plasma Calculated Concentration", "result": "521 ± 63.3", "unit": "ng/mL"}, {"measurement": "Brain/Plasma concentration ratio", "setting": "[4]; [5]", "result": 10.72}, {"measurement": "logBB (blood–brain partitioning coefficient)", "setting": "[4]; [5]", "result": "1.02 ± 0.10 and > 1 and 1.02"}, {"measurement": "Brain/Plasma concentration ratio", "setting": "[4]; [6]", "result": "> 10"}, {"measurement": "logBB", "setting": "[4]; [6]", "result": "1.11 ± 0.03 and > 1"}]}
